Data taken from the supplement of paper PMC10307832.

Tests used:
Assay in all cases: relative viability (nuclei count vs DMSO), 5 days (fraction); higher = more cells survive
Bemcentinib + Vorinostat = compound: Nc1nc(Nc2ccc3c(c2)CC[C@@H](N2CCCC2)CC3)nn1-c1cc2c(nn1)-c1ccccc1CCC2 [Bemcentinib] + O=C(CCCCCCC(=O)Nc1ccccc1)NO [Vorinostat] (partner 1 µM)
How it was run: (§1)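 Dosing by pin tool came one day after lung cancer cell lines were seeded in 1536-well plates, using either one drug or a fixed anchor-drug dose plus five library-drug doses (not always all listed) in √10 steps. After 5 days, nuclei were counted on 4× images. Relative viability is treated-well nuclei count divided by vehicle-well nuclei count, and values are medians of duplicate plates.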

[1] = compound: CC1=CC=C(C=C1)C(=O)CN2C3=C(CCCC3)SC2=N [Pifithrin_alpha] + C[C@@H](Oc1cc(-c2cnn(C3CCNCC3)c2)cnc1N)c1c(Cl)ccc(F)c1Cl [Crizotinib] (partner 1 µM)
How it was run: as §1

Axitinib + Palbociclib = compound: CNC(=O)c1ccccc1Sc1ccc2c(/C=C/c3ccccn3)n[nH]c2c1 [Axitinib] + CC(=O)c1c(C)c2cnc(Nc3ccc(N4CCNCC4)cn3)nc2n(C2CCCC2)c1=O [Palbociclib] (partner 0.5 µM)
How it was run: as §1

| Cell Line | relative viability (Bemcentinib + Vorinostat; first compound 0.04 µM) | relative viability (Bemcentinib + Vorinostat; first compound 0.1265 µM) | relative viability (Bemcentinib + Vorinostat; first compound 0.4 µM) | relative viability (Bemcentinib + Vorinostat; first compound 1.265 µM) | relative viability (Bemcentinib + Vorinostat; first compound 4 µM) | relative viability ([1]; first compound 1 µM) | relative viability ([1]; first compound 3.162 µM) | relative viability ([1]; first compound 10 µM) | relative viability ([1]; first compound 31.62 µM) | relative viability ([1]; first compound 100 µM) | relative viability (Axitinib + Palbociclib; first compound 0.005 µM) | relative viability (Axitinib + Palbociclib; first compound 0.01581 µM) | relative viability (Axitinib + Palbociclib; first compound 0.05 µM) | relative viability (Axitinib + Palbociclib; first compound 0.1581 µM) | relative viability (Axitinib + Palbociclib; first compound 0.5 µM) |
| --- | --- | --- | --- | --- | --- | --- | --- | --- | --- | --- | --- | --- | --- | --- | --- |
| NCI-H2126 | 0.76 | 0.787 | 0.791 | 0.812 | 0.889 | 1.03 | 1.05 | 0.886 | 0.768 | 0.953 | 0.345 | 0.348 | 0.347 | 0.327 | 0.343 |
| HOP-62 | 0.606 | 0.738 | 0.79 | 0.672 | 0.623 | 0.97 | 1.14 | 0.848 | 0.645 | 1.04 | 0.469 | 0.436 | 0.44 | 0.45 | 0.468 |
| NCI-H2347 | 0.544 | 0.596 | 0.718 | 0.67 | 0.575 | 0.647 | 0.868 | 0.696 | 0.55 | 0.643 | 0.42 | 0.411 | 0.436 | 0.434 | 0.362 |
| HCC-15 | 0.853 | 0.953 | 0.913 | 0.927 | 0.879 | 0.921 | 1.05 | 0.755 | 0.544 | 0.861 | 0.764 | 0.766 | 0.749 | 0.703 | 0.65 |
| HCC-44 | 1.15 | 1.2 | 1.05 | 1.13 | 1.08 | 0.816 | 0.742 | 0.647 | 0.515 | 0.65 | 0.946 | 0.967 | 0.988 | 0.96 | 1.04 |
| PC-14 | 0.681 | 0.696 | 0.979 | 0.83 | 0.664 | 0.998 | 0.827 | 0.741 | 0.699 | 0.703 | 0.498 | 0.427 | 0.511 | 0.563 | 0.71 |
| NCI-H2085 | 0.762 | 0.822 | 0.778 | 0.795 | 0.764 | 0.795 | 0.848 | 0.7 | 0.747 | 0.966 | 0.495 | 0.482 | 0.454 | 0.487 | 0.452 |
| HCC-827 | 0.79 | 0.858 | 0.783 | 0.361 | 0.789 | 0.87 | 0.928 | 0.875 | 0.693 | 0.82 | 0.511 | 0.501 | 0.475 | 0.491 | 0.546 |
| ChaGo-K-1 | 0.686 | 0.832 | 0.823 | 0.749 | 0.755 | 1.2 | 1.27 | 1.08 | 0.708 | 1.03 | 0.88 | 0.947 | 0.972 | 0.863 | 1 |
| H3255 |  | 0.755 | 0.772 | 0.784 | 0.772 | 0.762 | 0.948 | 0.826 | 0.469 | 0.656 | 0.332 | 0.294 | 0.316 | 0.334 | 0.329 |
| LOU-NH91 | 0.845 | 0.871 | 0.999 | 0.917 | 0.945 | 0.704 | 0.722 | 0.748 | 0.689 | 0.654 | 0.564 | 0.568 | 0.537 | 0.444 | 0.527 |
| LK-2 | 0.497 | 0.253 | 0.171 | 0.281 | 0.365 | 0.2 | 0.22 | 0.217 |  | 0.212 | 0.492 | 0.661 | 0.544 | 0.659 | 0.668 |
| EPLC-272H | 0.441 | 0.458 | 0.459 | 0.405 | 0.58 |  | 0.921 | 0.805 | 0.601 | 1.05 | 0.294 | 0.369 | 0.336 | 0.354 | 0.309 |
| NCI-H441 | 0.691 | 0.824 | 0.735 | 0.87 | 0.756 | 0.718 | 0.739 | 0.806 | 0.56 | 0.826 | 0.239 | 0.225 | 0.222 | 0.204 | 0.25 |
| NCI-H23 | 0.525 | 0.604 | 0.675 | 0.437 | 0.545 | 0.591 | 0.596 | 0.432 | 0.426 | 0.506 | 0.458 | 0.512 | 0.616 | 0.483 | 0.559 |
| NCI-H647 | 0.649 | 0.55 | 0.594 | 0.424 | 0.675 | 0.838 | 1.03 | 0.927 |  | 0.605 | 0.554 | 0.375 | 0.475 | 0.395 | 0.421 |
| LXF-289 | 0.658 | 0.799 | 0.662 | 0.796 | 0.763 | 0.878 | 0.813 | 0.805 | 0.696 | 0.788 | 0.597 | 0.539 | 0.603 | 0.583 | 0.657 |
